These results are taken from patent US20100168100A1, “QUINOLINE DERIVATIVES AS P13 KINASE INHIBITORS” (SMITHKLINE BEECHAM CORPORATION, priority 2007, published 2010).

One assay has as its target T1, PI3Kα (Homo sapiens, UniProt P42336).
T1 construct: His
Kind of assay: PI3K Alpha Leadseeker SPA Assay. The settings on record: in at least one experimental run; read-out: IC50 against PI3Kα. The class given is biochemical. Here is the method:
PI3K Alpha Leadseeker SPA Assay
Compounds of the present invention were tested according to the following assays and found as inhibitors of PI3 kinases, particularly PI3Kα. The exemplified compounds were tested and found active against PI3Kα. The IC50's ranged from about 1 nM to 10 μM.
SPA imaging beads are microspheres containing scintillant which emit light in the red region of the visible spectrum. As a result, these beads are ideally suited to use with a CCD imager such as the Viewlux. The Leadseeker beads used in this system are polystyrene beads that have been coupled with polyethyleneimine. When added to the assay mixture, the beads absorb both the substrate (PIP2) and product (PIP3). Adsorbed P^33-PIP3 will cause an increase in signal, measured as ADUs (analog to digital units). This protocol details the use of the PEI-PS Leadseeker beads for assays using His-p110/p85 PI3K alpha.
Solid compounds are typically plated with 0.1 μl of 100% DMSO in all wells (except column 6 and 18) of a 384-well, flat bottom, low volume plate (Greiner 784075). The compounds are serially diluted (3-fold in 100% DMSO) across the plate from column 1 to column 12 and column 13 to column 24 and leave column 6 and 18 containing only DMSO to yield 11 concentrations for each test compound.
The assay buffer contains MOPS (pH 6.5), CHAPS, and DTT. PI3K alpha and PIP2 (L-alpha-D-myo-Phosphatidylinositol 4,5-bisphosphate [PI(4,5)P2]3-O-phospho linked, D(+)-sn-1,2-di-O-octanoylglyceryl, CellSignals #901) are mixed and incubated in the plate with compound for 30 min prior to starting the reaction with the addition of P^33-ATP and MgCl2 (reagents added using Zoom). Enzyme-free wells (column 18) are typically done to determine the low control. PEI-PS Leadseeker beads in PBS/EDTA/CHAPS are added (by Multidrop) to quench the reaction, and the plates are allowed to incubate for at least one hour (typically overnight) before centrifugation. The signal is determined using a Viewlux detector and is then imported into curve fitting software (Activity Base) for construction of concentration response curves. The percent inhibition of activity is calculated relative to high controls (C1, 0.1 μl DMSO in column 6, rows A-P)) and low controls (C2, 5 μl of 40 uM PIP2 in buffer in column 18, rows A-P) using, 100*(1-(U1-C2)/(C1-C2)). The concentration of test compound yielding 50% inhibition is determined using the equation, y=((Vmax*x)/(K+x))+Y2, where “K” is equal to the IC50. The IC50 values are converted to pIC50 values, i.e., −log IC50 in Molar concentration.

The target in the next assay is CK2 protein kinase (Homo sapiens, UniProt P68400). Conditions: cited from earlier work.
CK2 protein kinase, sequence (P68400 whole entry): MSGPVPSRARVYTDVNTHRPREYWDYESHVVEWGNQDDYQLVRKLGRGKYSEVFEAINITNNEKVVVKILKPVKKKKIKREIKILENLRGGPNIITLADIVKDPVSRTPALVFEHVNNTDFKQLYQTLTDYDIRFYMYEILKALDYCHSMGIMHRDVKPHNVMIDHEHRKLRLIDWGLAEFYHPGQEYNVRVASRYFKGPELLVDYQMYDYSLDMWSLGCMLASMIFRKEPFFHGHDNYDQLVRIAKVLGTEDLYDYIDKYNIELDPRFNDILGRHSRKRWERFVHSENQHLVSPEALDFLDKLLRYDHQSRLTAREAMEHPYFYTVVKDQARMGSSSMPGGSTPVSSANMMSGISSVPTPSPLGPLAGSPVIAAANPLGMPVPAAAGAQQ

T1 sequence (P42336 whole entry): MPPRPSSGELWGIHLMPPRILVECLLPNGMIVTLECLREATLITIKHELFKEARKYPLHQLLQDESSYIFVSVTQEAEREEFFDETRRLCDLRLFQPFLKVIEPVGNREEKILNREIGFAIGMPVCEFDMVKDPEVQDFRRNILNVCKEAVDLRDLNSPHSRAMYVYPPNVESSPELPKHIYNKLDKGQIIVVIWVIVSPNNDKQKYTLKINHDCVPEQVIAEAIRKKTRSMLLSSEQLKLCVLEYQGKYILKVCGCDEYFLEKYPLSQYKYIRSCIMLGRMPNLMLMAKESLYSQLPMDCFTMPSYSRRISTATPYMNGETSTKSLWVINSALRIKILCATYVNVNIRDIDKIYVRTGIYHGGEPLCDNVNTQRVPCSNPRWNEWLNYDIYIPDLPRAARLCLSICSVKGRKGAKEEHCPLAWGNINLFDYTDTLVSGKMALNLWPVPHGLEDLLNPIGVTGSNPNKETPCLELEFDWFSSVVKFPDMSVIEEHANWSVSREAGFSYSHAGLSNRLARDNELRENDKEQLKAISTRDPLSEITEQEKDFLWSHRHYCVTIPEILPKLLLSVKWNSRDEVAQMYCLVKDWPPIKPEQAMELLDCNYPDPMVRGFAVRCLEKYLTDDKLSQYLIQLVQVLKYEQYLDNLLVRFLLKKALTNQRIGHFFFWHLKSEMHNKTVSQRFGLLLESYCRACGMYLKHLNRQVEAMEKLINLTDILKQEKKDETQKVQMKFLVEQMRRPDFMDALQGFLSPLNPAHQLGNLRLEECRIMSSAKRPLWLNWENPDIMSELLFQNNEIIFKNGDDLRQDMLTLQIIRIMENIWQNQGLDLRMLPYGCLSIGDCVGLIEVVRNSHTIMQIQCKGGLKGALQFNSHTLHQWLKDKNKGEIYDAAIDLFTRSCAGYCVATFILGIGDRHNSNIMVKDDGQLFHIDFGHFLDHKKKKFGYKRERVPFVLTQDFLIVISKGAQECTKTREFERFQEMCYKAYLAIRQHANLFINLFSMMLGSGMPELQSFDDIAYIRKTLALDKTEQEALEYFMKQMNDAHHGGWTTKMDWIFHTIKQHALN
T1 sequence (P27986 whole entry partner): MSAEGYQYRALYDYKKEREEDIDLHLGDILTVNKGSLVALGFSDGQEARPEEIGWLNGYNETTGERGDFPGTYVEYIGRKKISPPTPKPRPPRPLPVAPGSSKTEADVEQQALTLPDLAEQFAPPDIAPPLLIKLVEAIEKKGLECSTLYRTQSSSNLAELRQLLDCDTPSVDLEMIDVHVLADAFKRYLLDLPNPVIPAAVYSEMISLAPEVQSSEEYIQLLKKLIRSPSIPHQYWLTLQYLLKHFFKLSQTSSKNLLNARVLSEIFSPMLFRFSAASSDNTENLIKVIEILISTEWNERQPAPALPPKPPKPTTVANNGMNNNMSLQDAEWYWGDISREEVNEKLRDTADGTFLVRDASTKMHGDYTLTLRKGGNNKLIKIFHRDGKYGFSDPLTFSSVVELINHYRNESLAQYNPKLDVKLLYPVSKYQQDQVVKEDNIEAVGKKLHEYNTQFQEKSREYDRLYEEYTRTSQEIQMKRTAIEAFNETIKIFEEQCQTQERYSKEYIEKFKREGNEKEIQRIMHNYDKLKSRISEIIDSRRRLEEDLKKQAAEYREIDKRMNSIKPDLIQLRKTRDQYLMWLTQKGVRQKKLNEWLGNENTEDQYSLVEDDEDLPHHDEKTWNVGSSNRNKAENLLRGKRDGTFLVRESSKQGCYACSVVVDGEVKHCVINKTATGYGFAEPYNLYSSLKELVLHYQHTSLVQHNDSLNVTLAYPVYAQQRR

As for `CC1=Nc2ccc(-c3ccc4nccc(-c5ccncc5)c4c3)cc2S(=O)(=O)N1` [Example 154], the concentration for half-maximal inhibition (IC50) on PI3Kα was determined as 316 nM. On the same count and under the same terms, the result for `c1cc(-c2ccnc3ccc(-c4ccc5[nH]ncc5c4)cc23)ccn1` [Example 156] reads 79 nM; that for `c1cc(-c2ccnc3ccc(-c4nc5ncncc5[nH]4)cc23)ccn1` [Example 224], 1000 nM; that for `O=S(=O)(Nc1cc(-c2ccc3nccc(-c4ccncc4)c3c2)c[n+]([O-])c1Cl)c1ccccc1` [Example 249], 1.6 nM. `Cc1ccccc1S(=O)(=O)Nc1cc(-c2ccc3nccc(-c4ccncc4)c3c2)cnc1Cl` [Example 252]: on PI3Kα, the IC50 turned out to be 0.8 nM. On to `NC(=O)Cn1cc(-c2ccnc3ccc(-c4cncc(S(=O)(=O)Nc5ccc(F)cc5F)c4)cc23)cn1` [Example 263], for which the IC50 at PI3Kα came to 7.9 nM. Turning to `COc1ncc(-c2ccc3nccc(C4CCCC4)c3c2)cc1NS(=O)(=O)c1ccccc1` [Example 289], the IC50 at PI3Kα came to 2.5 nM. Consider `O=c1cc(N2CCOCC2)oc2c(-c3ccccc3)cccc12` [LY294002], for which the IC50 at CK2 protein kinase was 5000 to 10000 nM.

By IC50 is commonly meant the midpoint of a concentration-inhibition curve.
